Results on four compounds are retold here after the supplement of paper PMC10307832.

The first assay deals with NCI-H596. Nature of the assay: relative viability (nuclei count vs DMSO), 5 days (fraction); higher = more cells survive. To be noted: first compound 20 µM. In outline:
(§1)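 Values are medians from duplicate plates. Each reflects relative viability, defined as the nuclei count of treated wells over that of vehicle wells. Lung cancer cell lines in 1536-well plates were pin-tool dosed one day after seeding with one drug alone or with a fixed anchor-drug dose plus five library-drug doses (not always all listed) in √10 steps, then fixed, stained and imaged at 4× after 5 days.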
With `COCC1(CO)C(=O)C2CCN1CC2` (stereo not given) [PRIMA-1MET] + CCNC(=O)c1noc(-c2cc(C(C)C)c(O)cc2O)c1-c1ccc(CN2CCOCC2)cc1 [Luminespib] (partner 0.01 µM), the relative viability is 0.109.

The compound `COCC1(CO)C(=O)C2CCN1CC2` (stereo not given) [PRIMA-1MET] + Cc1nc(Nc2ncc(C(=O)Nc3c(C)cccc3Cl)s2)cc(N2CCN(CCO)CC2)n1 [Dasatinib] (partner 0.075 µM) gave a relative viability of 0.147.

In another assay the test system is COR-L 105. The description is as above. To be noted: first compound 0.2 µM. The method in brief: as §1
Turning to `COCC1(CO)C(=O)C2CCN1CC2` (stereo not given) [PRIMA-1MET] + CS(=O)(=O)N1CCN(Cc2cc3nc(-c4cccc5[nH]ncc45)nc(N4CCOCC4)c3s2)CC1 [Pictilisib] (partner 1 µM), the relative viability stood at 0.387.

Regarding `COCC1(CO)C(=O)C2CCN1CC2` (stereo not given) [PRIMA-1MET] + CCNC(=O)c1noc(-c2cc(C(C)C)c(O)cc2O)c1-c1ccc(CN2CCOCC2)cc1 [Luminespib] (partner 0.01 µM), the relative viability came to 0.775.

In turn, `COCC1(CO)C(=O)C2CCN1CC2` (stereo not given) [PRIMA-1MET] + CC(=O)c1c(C)c2cnc(Nc3ccc(N4CCNCC4)cn3)nc2n(C2CCCC2)c1=O [Palbociclib] (partner 0.5 µM) showed a relative viability of 0.41.

With `COCC1(CO)C(=O)C2CCN1CC2` (stereo not given) [PRIMA-1MET] + Cc1nc(Nc2ncc(C(=O)Nc3c(C)cccc3Cl)s2)cc(N2CCN(CCO)CC2)n1 [Dasatinib] (partner 0.075 µM), the relative viability was 0.346.

Staying with this assay, now noted: first compound 0.6325 µM.
As to `COCC1(CO)C(=O)C2CCN1CC2` (stereo not given) [PRIMA-1MET] + CS(=O)(=O)N1CCN(Cc2cc3nc(-c4cccc5[nH]ncc45)nc(N4CCOCC4)c3s2)CC1 [Pictilisib] (partner 1 µM), the relative viability was 0.346.

For the compound `COCC1(CO)C(=O)C2CCN1CC2` (stereo not given) [PRIMA-1MET] + CCNC(=O)c1noc(-c2cc(C(C)C)c(O)cc2O)c1-c1ccc(CN2CCOCC2)cc1 [Luminespib] (partner 0.01 µM), the relative viability was found to be 0.687.

In turn, `COCC1(CO)C(=O)C2CCN1CC2` (stereo not given) [PRIMA-1MET] + CC(=O)c1c(C)c2cnc(Nc3ccc(N4CCNCC4)cn3)nc2n(C2CCCC2)c1=O [Palbociclib] (partner 0.5 µM) registered a relative viability of 0.363.

In the case of `COCC1(CO)C(=O)C2CCN1CC2` (stereo not given) [PRIMA-1MET] + Cc1nc(Nc2ncc(C(=O)Nc3c(C)cccc3Cl)s2)cc(N2CCN(CCO)CC2)n1 [Dasatinib] (partner 0.075 µM), the relative viability stood at 0.404.

The assay is the same for the next values; noted with them: first compound 2 µM.
With `COCC1(CO)C(=O)C2CCN1CC2` (stereo not given) [PRIMA-1MET] + CS(=O)(=O)N1CCN(Cc2cc3nc(-c4cccc5[nH]ncc45)nc(N4CCOCC4)c3s2)CC1 [Pictilisib] (partner 1 µM), the relative viability came to 0.324.

`COCC1(CO)C(=O)C2CCN1CC2` (stereo not given) [PRIMA-1MET] + CCNC(=O)c1noc(-c2cc(C(C)C)c(O)cc2O)c1-c1ccc(CN2CCOCC2)cc1 [Luminespib] (partner 0.01 µM) showed a relative viability of 0.845.

Compound `COCC1(CO)C(=O)C2CCN1CC2` (stereo not given) [PRIMA-1MET] + CC(=O)c1c(C)c2cnc(Nc3ccc(N4CCNCC4)cn3)nc2n(C2CCCC2)c1=O [Palbociclib] (partner 0.5 µM) had a relative viability of 0.385.

`COCC1(CO)C(=O)C2CCN1CC2` (stereo not given) [PRIMA-1MET] + Cc1nc(Nc2ncc(C(=O)Nc3c(C)cccc3Cl)s2)cc(N2CCN(CCO)CC2)n1 [Dasatinib] (partner 0.075 µM) gave a relative viability of 0.292.

The assay is the same for the next values; noted with them: first compound 6.325 µM.
Compound `COCC1(CO)C(=O)C2CCN1CC2` (stereo not given) [PRIMA-1MET] + CS(=O)(=O)N1CCN(Cc2cc3nc(-c4cccc5[nH]ncc45)nc(N4CCOCC4)c3s2)CC1 [Pictilisib] (partner 1 µM) yielded a relative viability of 0.245.

In turn, `COCC1(CO)C(=O)C2CCN1CC2` (stereo not given) [PRIMA-1MET] + CCNC(=O)c1noc(-c2cc(C(C)C)c(O)cc2O)c1-c1ccc(CN2CCOCC2)cc1 [Luminespib] (partner 0.01 µM) yielded a relative viability of 0.808.

Compound `COCC1(CO)C(=O)C2CCN1CC2` (stereo not given) [PRIMA-1MET] + CC(=O)c1c(C)c2cnc(Nc3ccc(N4CCNCC4)cn3)nc2n(C2CCCC2)c1=O [Palbociclib] (partner 0.5 µM) returned a relative viability of 0.41.

For the compound `COCC1(CO)C(=O)C2CCN1CC2` (stereo not given) [PRIMA-1MET] + Cc1nc(Nc2ncc(C(=O)Nc3c(C)cccc3Cl)s2)cc(N2CCN(CCO)CC2)n1 [Dasatinib] (partner 0.075 µM), the relative viability amounted to 0.161.

The same assay, now with this note: first compound 20 µM.
In turn, `COCC1(CO)C(=O)C2CCN1CC2` (stereo not given) [PRIMA-1MET] + CS(=O)(=O)N1CCN(Cc2cc3nc(-c4cccc5[nH]ncc45)nc(N4CCOCC4)c3s2)CC1 [Pictilisib] (partner 1 µM) showed a relative viability of 0.2.

Turning to `COCC1(CO)C(=O)C2CCN1CC2` (stereo not given) [PRIMA-1MET] + CCNC(=O)c1noc(-c2cc(C(C)C)c(O)cc2O)c1-c1ccc(CN2CCOCC2)cc1 [Luminespib] (partner 0.01 µM), the relative viability was 0.111.

Regarding `COCC1(CO)C(=O)C2CCN1CC2` (stereo not given) [PRIMA-1MET] + CC(=O)c1c(C)c2cnc(Nc3ccc(N4CCNCC4)cn3)nc2n(C2CCCC2)c1=O [Palbociclib] (partner 0.5 µM), the relative viability was 0.16.

Turning to `COCC1(CO)C(=O)C2CCN1CC2` (stereo not given) [PRIMA-1MET] + Cc1nc(Nc2ncc(C(=O)Nc3c(C)cccc3Cl)s2)cc(N2CCN(CCO)CC2)n1 [Dasatinib] (partner 0.075 µM), the relative viability turned out to be 0.091.

Another assay deals with NCI-H2087. The description is as above. To be noted: first compound 0.2 µM. In outline:
as §1
With `COCC1(CO)C(=O)C2CCN1CC2` (stereo not given) [PRIMA-1MET] + CS(=O)(=O)N1CCN(Cc2cc3nc(-c4cccc5[nH]ncc45)nc(N4CCOCC4)c3s2)CC1 [Pictilisib] (partner 1 µM), the relative viability turned out to be 0.413.

The compound `COCC1(CO)C(=O)C2CCN1CC2` (stereo not given) [PRIMA-1MET] + CCNC(=O)c1noc(-c2cc(C(C)C)c(O)cc2O)c1-c1ccc(CN2CCOCC2)cc1 [Luminespib] (partner 0.01 µM) came in with a relative viability of 0.167.

As for `COCC1(CO)C(=O)C2CCN1CC2` (stereo not given) [PRIMA-1MET] + Cc1nc(Nc2ncc(C(=O)Nc3c(C)cccc3Cl)s2)cc(N2CCN(CCO)CC2)n1 [Dasatinib] (partner 0.075 µM), the relative viability amounted to 0.471.
